# Results reported in patent US20210395256A1, “TYROSINE KINASE INHIBITORS, COMPOSITIONS AND METHODS THERE OF” (Betta Pharmaceuticals Co., Ltd., priority 2018, published 2021).
# Target: TrkA kinase (Homo sapiens, UniProt P04629)
# Assay: TrkA kinase assay (mobility shift assay)
# Type: biochemical
# Details: class symbols; read-out: Trk A Kinase IC50
# Outline: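 Caliper mobility-shift readout of FAM-labelled peptide conversion by TrkA in 50 mM HEPES pH 7.5, 0.0015% Brij-35, with ATP; enzyme preincubated 10 min with compound (10-point dilution), reaction at 28 °C, EDTA stop. Inhibition relative to DMSO and no-enzyme controls; IC50 by four-parameter fit.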
# Sequence of TrkA kinase (P04629 33-796): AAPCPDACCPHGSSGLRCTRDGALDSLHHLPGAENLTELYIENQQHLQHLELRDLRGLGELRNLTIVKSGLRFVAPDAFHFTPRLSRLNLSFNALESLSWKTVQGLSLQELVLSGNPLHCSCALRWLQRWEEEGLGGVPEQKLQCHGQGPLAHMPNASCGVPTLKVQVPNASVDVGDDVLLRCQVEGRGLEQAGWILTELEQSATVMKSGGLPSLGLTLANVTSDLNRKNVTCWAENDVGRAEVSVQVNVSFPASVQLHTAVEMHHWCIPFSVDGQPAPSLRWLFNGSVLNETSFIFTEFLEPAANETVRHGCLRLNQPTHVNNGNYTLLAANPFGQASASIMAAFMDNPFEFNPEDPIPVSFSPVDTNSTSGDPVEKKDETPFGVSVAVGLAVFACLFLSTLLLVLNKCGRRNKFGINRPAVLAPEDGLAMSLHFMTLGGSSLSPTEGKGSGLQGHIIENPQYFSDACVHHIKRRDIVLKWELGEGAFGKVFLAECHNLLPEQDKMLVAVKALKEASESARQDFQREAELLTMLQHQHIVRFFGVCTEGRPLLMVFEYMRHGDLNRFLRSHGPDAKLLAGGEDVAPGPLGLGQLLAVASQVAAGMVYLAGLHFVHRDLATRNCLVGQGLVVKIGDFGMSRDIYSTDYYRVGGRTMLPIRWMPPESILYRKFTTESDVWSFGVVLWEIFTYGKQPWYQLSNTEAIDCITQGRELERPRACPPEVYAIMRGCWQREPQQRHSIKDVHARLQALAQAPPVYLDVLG
row,Compound,IC50 [nM]
1,"COC(=O)c1ccc(F)c2nc(-c3cnn4ccc(N5CCC[C@@H]5c5cc(F)ccc5F)nc34)oc12 [Compound 175, methyl (R)-2-(5-(2-(2,5-difluorophenyl)pyrrolidin-1-yl)pyrazolo[1,5-a]pyrimidin-3-yl)-4-fluorobenzo[d]oxazole-7-carboxylate]",≤ 10
2,"N#Cc1cc2nc(-c3cnn4ccc(N5CCC[C@@H]5c5cc(F)ccc5F)nc34)oc2cc1OC(F)(F)F [Compound 176, (R)-2-(5-(2-(2,5-difluorophenyl)pyrrolidin-1-yl)pyrazolo[1,5-a]pyrimidin-3-yl)-6-(trifluoromethoxy)benzo[d]oxazole-5-carbonitrile]",10 to 50
3,"COC(=O)c1cc2oc(-c3cnn4ccc(N5CCC[C@@H]5c5cc(F)ccc5F)nc34)nc2cc1OC [Compound 178, methyl (R)-2-(5-(2-(2,5-difluorophenyl)pyrrolidin-1-yl)pyrazolo[1,5-a]pyrimidin-3-yl)-5-methoxybenzo[d]oxazole-6-carboxylate]",≤ 10
4,"Cc1cc2nc(-c3cnn4ccc(N5CCC[C@@H]5c5cc(F)ccc5F)nc34)oc2cc1OC(F)F [Compound 179, (R)-6-(difluoromethoxy)-2-(5-(2-(2,5-difluorophenyl)pyrrolidin-1-yl)pyrazolo[1,5-a]pyrimidin-3-yl)-5-methylbenzo[d]oxazole]",10 to 50
5,"COc1cc2oc(-c3cnn4ccc(N5CCC[C@@H]5c5cc(F)ccc5F)nc34)nc2cc1CN1CCC[C@H]1C(=O)O [Compound 180, ((2-(5-((R)-2-(2,5-difluorophenyl)pyrrolidin-1-yl)pyrazolo[1,5-a]pyrimidin-3-yl)-6-methoxybenzo[d]oxazol-5-yl)methyl)-L-proline]",> 50
6,"COc1cnc(OC)n2nc(-c3cnn4ccc(N5CCC[C@@H]5c5cc(F)ccc5F)nc34)nc12 [Compound 181, (R)-2-(5-(2-(2,5-difluorophenyl)pyrrolidin-1-yl)pyrazolo[1,5-a]pyrimidin-3-yl)-5,8-dimethoxy-[1,2,4]triazolo[1,5-c]pyrimidine]",10 to 50
7,"COc1cc2nc(-c3cnn4ccc(N5CCC[C@@H]5c5cc(F)ccc5F)nc34)nn2cc1OC [Compound 182, (R)-2-(5-(2-(2,5-difluorophenyl)pyrrolidin-1-yl)pyrazolo[1,5-a]pyrimidin-3-yl)-6,7-dimethoxy-[1,2,4]triazolo[1,5-a]pyridine]",10 to 50
8,"COC(=O)c1ccc2[nH]c(-c3cnn4ccc(N5CCC[C@@H]5c5cc(F)ccc5F)nc34)cc2c1 [Compound 184, methyl (R)-2-(5-(2-(2,5-difluorophenyl)pyrrolidin-1-yl)pyrazolo[1,5-a]pyrimidin-3-yl)-1H-indole-5-carboxylate]",≤ 10
9,"O=C(O)c1ccc2[nH]c(-c3cnn4ccc(N5CCC[C@@H]5c5cc(F)ccc5F)nc34)cc2c1 [Compound 185, (R)-2-(5-(2-(2,5-difluorophenyl)pyrrolidin-1-yl)pyrazolo[1,5-a]pyrimidin-3-yl)-1H-indole-5-carboxylic acid]",≤ 10
10,"Oc1ccc2cc(-c3cnn4ccc(N5CCC[C@@H]5c5cc(F)ccc5F)nc34)[nH]c2c1 [Compound 186, (R)-2-(5-(2-(2,5-difluorophenyl)pyrrolidin-1-yl)pyrazolo[1,5-a]pyrimidin-3-yl)-1H-indol-6-ol]",10 to 50
11,"Fc1ccc(F)c([C@H]2CCCN2c2ccn3ncc(-c4nc5c([nH]4)COCC5)c3n2)c1 [Compound 188, (R)-2-(5-(2-(2,5-difluorophenyl)pyrrolidin-1-yl)pyrazolo[1,5-a]pyrimidin-3-yl)-3,4,6,7-tetrahydropyrano[3,4-d]imidazole]",≤ 10
12,"Fc1ccc(F)c([C@H]2CCCN2c2ccn3ncc(-c4nc5c(s4)CCNC5)c3n2)c1 [Compound 189, (R)-2-(5-(2-(2,5-difluorophenyl)pyrrolidin-1-yl)pyrazolo[1,5-a]pyrimidin-3-yl)-4,5,6,7-tetrahydrothiazolo[4,5-c]pyridine]",≤ 10
13,"Fc1ccc(F)c([C@H]2CCCN2c2ccn3ncc(-c4nc5c(s4)CNCC5)c3n2)c1 [Compound 190, (R)-2-(5-(2-(2,5-difluorophenyl)pyrrolidin-1-yl)pyrazolo[1,5-a]pyrimidin-3-yl)-4,5,6,7-tetrahydrothiazolo[5,4-c]pyridine]",≤ 10
14,"NC(=O)N1CCc2nc(-c3cnn4ccc(N5CCC[C@@H]5c5cc(F)ccc5F)nc34)sc2C1 [Compound 191, (R)-2-(5-(2-(2,5-difluorophenyl)pyrrolidin-1-yl)pyrazolo[1,5-a]pyrimidin-3-yl)-6,7-dihydrothiazolo[5,4-c]pyridine-5(4H)-carboxamide]",10 to 50
15,"Fc1ccc(F)c([C@H]2CCCN2c2ccn3ncc(-c4nc5c(s4)COCC5)c3n2)c1 [Compound 192, (R)-2-(5-(2-(2,5-difluorophenyl)pyrrolidin-1-yl)pyrazolo[1,5-a]pyrimidin-3-yl)-6,7-dihydro-4H-pyrano[4,3-d]thiazole]",10 to 50
16,"COc1cc2nc(-c3c(N)nn4ccc(N5CCC[C@@H]5c5cc(F)ccc5F)nc34)[nH]c2cc1OC [Compound 193, (R)-5-(2-(2,5-difluorophenyl)pyrrolidin-1-yl)-3-(5,6-dimethoxy-1H-benzo[d]imidazol-2-yl)pyrazolo[1,5-a]pyrimidin-2-amine]",≤ 10
17,"COc1cc2nc(-c3c(N)nn4ccc(N5CCC[C@@H]5c5cc(F)ccc5F)nc34)[nH]c2cc1C#N [Compound 194, (R)-2-(2-amino-5-(2-(2,5-difluorophenyl)pyrrolidin-1-yl)pyrazolo[1,5-a]pyrimidin-3-yl)-5-methoxy-1H-benzo[d]imidazole-6-carbonitrile]",≤ 10
18,"COc1cc2[nH]c(-c3cnn4ccc(N5CCC[C@H]5c5cc(F)ccc5F)nc34)nc2cc1C#N [Compound 197, (S)-2-(5-(2-(2,5-difluorophenyl)pyrrolidin-1-yl)pyrazolo[1,5-a]pyrimidin-3-yl)-6-methoxy-1H-benzo[d]imidazole-5-carbonitrile]",10 to 50
19,"COc1cc2[nH]c(-c3cnn4ccc(N5CCC[C@@H]5c5ccc(F)cc5)nc34)nc2cc1C#N [Compound 198, (R)-2-(5-(2-(4-fluorophenyl)pyrrolidin-1-yl)pyrazolo[1,5-a]pyrimidin-3-yl)-6-methoxy-1H-benzo[d]imidazole-5-carbonitrile]",> 50
20,"COc1cc2nc(-c3cnn4ccc(N5CCC[C@@H]5c5cc(F)ccc5F)nc34)cn2cc1OC [Compound 199, (R)-5-(2-(2,5-difluorophenyl)pyrrolidin-1-yl)-3-(6,7-dimethoxyimidazo[1,2-a]pyridin-2-yl)pyrazolo[1,5-a]pyrimidine]",10 to 50
21,"Fc1ccc(F)c([C@H]2CCCN2c2ccn3ncc(-c4nnc5n4CCOC5)c3n2)c1 [Compound 200, (R)-3-(5-(2-(2,5-difluorophenyl)pyrrolidin-1-yl)pyrazolo[1,5-a]pyrimidin-3-yl)-5,6-dihydro-8H-[1,2,4]triazolo[3,4-c][1,4]oxazine]",10 to 50

# Same assay, conditions: numeric values; read-out: Trk A Kinase IC50
row,Compound,IC50 [nM]
1,"N#Cc1cc2nc(-c3cnn4ccc(N5CCC[C@@H]5c5cc(F)ccc5F)nc34)oc2cc1O [Compound 177, (R)-2-(5-(2-(2,5-difluorophenyl)pyrrolidin-1-yl)pyrazolo[1,5-a]pyrimidin-3-yl)-6-hydroxybenzo[d]oxazole-5-carbonitrile]",1.2
2,"Fc1ccc(F)c([C@H]2CCCN2c2ccn3ncc(-c4cc5ccc(F)cc5[nH]4)c3n2)c1 [Compound 183, (R)-5-(2-(2,5-difluorophenyl)pyrrolidin-1-yl)-3-(6-fluoro-1H-indol-2-yl)pyrazolo[1,5-a]pyrimidine]",20.4
3,"O[C@H]1CCn2nc(-c3cnn4ccc(N5CCC[C@@H]5c5cc(F)ccc5F)nc34)nc2C1 [Compound 187, (S)-2-(5-((R)-2-(2,5-difluorophenyl)pyrrolidin-1-yl)pyrazolo[1,5-a]pyrimidin-3-yl)-5,6,7,8-tetrahydro-[1,2,4]triazolo[1,5-a]pyridin-7-ol]",6.6
4,"COc1cc2[nH]c(-c3cnn4ccc(N5CCC[C@@H]5c5ccccc5F)nc34)nc2cc1C#N [Compound 195, (R)-2-(5-(2-(2-fluorophenyl)pyrrolidin-1-yl)pyrazolo[1,5-a]pyrimidin-3-yl)-6-methoxy-1H-benzo[d]imidazole-5-carbonitrile]",2.3
5,"COc1cc2[nH]c(-c3cnn4ccc(N5CCC[C@@H]5c5cccc(F)c5)nc34)nc2cc1C#N [Compound 196, (R)-2-(5-(2-(3-fluorophenyl)pyrrolidin-1-yl)pyrazolo[1,5-a]pyrimidin-3-yl)-6-methoxy-1H-benzo[d]imidazole-5-carbonitrile]",2.6
